Source: the SangsterLogP compilation

| SMILES | logP |
| --- | --- |
| CCCC(C)(C)CO | 2.39 |
| CCCCC(O)CCCC | 3.36 |
| CCCCCC(O)CCC (stereo unspecified) | 3.36 |
| CCCCCCC(O)CC (stereo unspecified) | 3.36 |
| CC(C)(C)CCCO | 2.39 |
| CCCCC(O)CC (stereo unspecified) | 2.31 |
| CCCCCCCCCCCCCCCO | 6.64 |
| CCC(O)C(C)(C)C (stereo unspecified) | 2.27 |
| CCCCCCCCCCCCCCO | 6.11 |
| CC(C)(C)CCO | 1.57 |

Results, then the compound that gave them:

| logP | SMILES |
| --- | --- |
| 1.67 | CC(C)CC(C)(C)O |
| 1.67 | CC(C)CC(C)O (stereo unspecified) |
| 2.19 | CC(C)CC(C)CO (stereo unspecified) |
| 1.57 | CCC(C)(C)CO |
| 2.31 | CC(C)C(O)C(C)C |
| 1.78 | CCC(CC)CO |
